Assay [1] concerns the target T1, baculovirus-expressed ALK (Homo sapiens, UniProt Q9UM73).
T1 construct: host or cells: baculovirus expression system
Description: ALK Kinase Assay (ELISA-type, time-resolved fluorescence). In kind it is biochemical. The note with it: 1 μM ATP (Km level), 30 ng/ml ALK, 37° C., 15 minutes; read-out: ALK Activity (ALK kinase inhibition, IC50 class). An outline of the steps: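 Substrate coating: phospholipase C-γ, 10 μg/mL in TBS. Kinase step: 30 ng/ml ALK, 15 min, 37° C. Detection and analysis: Eu-N1 PT66 antibody, with IC50 fitted as a sigmoidal variable-slope dose-response curve.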

The target in assay [2] is T2, c-Met (cytoplasmic domain) (Homo sapiens, UniProt P08581).
T2 construct: 10 ng/mL c-Met (cytoplasmic domain, Invitrogen Corporation #PV3143); purchased Invitrogen Corporation PV3143
T2 sequence (P08581 956-1390 limits assumed): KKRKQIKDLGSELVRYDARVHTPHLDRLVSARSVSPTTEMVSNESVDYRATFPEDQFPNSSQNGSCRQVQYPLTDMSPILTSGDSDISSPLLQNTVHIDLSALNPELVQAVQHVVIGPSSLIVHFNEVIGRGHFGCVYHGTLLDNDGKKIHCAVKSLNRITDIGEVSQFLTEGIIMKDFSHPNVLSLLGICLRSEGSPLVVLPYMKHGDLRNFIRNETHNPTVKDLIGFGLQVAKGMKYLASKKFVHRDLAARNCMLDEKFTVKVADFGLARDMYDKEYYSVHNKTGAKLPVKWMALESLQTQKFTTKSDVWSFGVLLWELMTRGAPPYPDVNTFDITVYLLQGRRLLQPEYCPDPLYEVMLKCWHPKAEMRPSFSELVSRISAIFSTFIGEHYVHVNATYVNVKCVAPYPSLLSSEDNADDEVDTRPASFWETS
In words: c-Met Kinase Assay (same methods as for ALK, with modifications). In kind it is biochemical. To be noted: 1 μM ATP (Km level), 10 ng/mL c-Met; read-out: cMet Activity (c-Met kinase inhibition, IC50 class). Summed up:
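Wells were coated with 10 μg/mL phospholipase C-γ substrate in TBS, and reactions were started with 10 ng/mL c-Met cytoplasmic domain and run at 37° C for 15 minutes. Phosphorylated product was detected with Eu-N1-labeled PT66 antibody. IC50 values came from sigmoidal variable-slope fits of percent inhibition versus log compound concentration.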

T1 sequence (Q9UM73 19-1620): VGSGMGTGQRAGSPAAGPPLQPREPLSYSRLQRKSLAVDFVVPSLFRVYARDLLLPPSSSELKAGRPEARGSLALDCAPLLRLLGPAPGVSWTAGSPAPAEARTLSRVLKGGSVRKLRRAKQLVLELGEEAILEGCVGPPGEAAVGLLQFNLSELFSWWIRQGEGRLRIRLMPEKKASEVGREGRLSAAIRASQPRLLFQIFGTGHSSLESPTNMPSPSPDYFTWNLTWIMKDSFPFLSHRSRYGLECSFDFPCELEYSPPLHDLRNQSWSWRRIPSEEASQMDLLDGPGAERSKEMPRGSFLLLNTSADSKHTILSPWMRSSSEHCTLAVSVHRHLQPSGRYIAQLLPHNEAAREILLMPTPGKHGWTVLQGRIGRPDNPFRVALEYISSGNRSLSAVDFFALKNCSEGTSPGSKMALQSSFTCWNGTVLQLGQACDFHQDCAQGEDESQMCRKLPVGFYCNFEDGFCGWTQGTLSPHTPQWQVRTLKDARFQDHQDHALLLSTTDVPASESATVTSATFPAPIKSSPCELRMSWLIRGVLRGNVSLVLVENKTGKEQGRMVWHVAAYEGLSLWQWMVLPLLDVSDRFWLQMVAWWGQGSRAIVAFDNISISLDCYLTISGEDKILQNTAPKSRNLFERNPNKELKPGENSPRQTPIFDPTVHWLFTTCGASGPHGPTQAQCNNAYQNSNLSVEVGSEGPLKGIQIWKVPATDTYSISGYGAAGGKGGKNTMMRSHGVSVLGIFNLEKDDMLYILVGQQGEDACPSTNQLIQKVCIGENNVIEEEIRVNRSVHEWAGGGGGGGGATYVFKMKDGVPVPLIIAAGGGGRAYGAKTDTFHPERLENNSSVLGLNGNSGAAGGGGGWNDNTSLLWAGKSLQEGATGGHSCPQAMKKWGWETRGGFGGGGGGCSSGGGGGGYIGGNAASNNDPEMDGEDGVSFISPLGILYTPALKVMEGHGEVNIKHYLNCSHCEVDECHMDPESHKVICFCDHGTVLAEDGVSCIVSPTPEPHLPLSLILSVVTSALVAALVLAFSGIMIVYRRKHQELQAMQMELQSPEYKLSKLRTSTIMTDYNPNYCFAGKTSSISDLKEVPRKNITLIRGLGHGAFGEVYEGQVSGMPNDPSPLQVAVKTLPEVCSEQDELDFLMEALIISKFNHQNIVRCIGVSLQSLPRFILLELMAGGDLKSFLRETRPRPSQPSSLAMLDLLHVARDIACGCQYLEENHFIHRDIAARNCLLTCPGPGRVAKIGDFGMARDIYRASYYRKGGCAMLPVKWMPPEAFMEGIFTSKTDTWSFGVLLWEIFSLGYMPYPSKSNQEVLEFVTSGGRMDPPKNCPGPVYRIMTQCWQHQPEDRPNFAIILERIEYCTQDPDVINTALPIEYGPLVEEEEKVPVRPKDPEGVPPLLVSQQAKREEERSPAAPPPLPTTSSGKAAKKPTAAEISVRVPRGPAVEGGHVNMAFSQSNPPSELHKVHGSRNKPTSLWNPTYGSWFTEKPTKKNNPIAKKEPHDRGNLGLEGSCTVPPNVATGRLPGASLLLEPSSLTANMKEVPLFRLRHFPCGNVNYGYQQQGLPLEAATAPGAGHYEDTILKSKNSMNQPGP

As for `COc1cc2c(cc1Nc1ncc(Cl)c(Nc3cc(C(N)=O)ccc3OC)n1)CCN(CC(=O)N(C)C)CC2` [Example 1136, 3-[5-Chloro-2-(3-dimethylcarbamoylmethyl-8-methoxy-2,3,4,5-tetrahydro-1H-benzo[d]azepin-7-ylamino)-pyrimidin-4-ylamino]-4-methoxy-benzamide], the 50% inhibitory concentration (IC50) fell in the range of 100 to 1000 nM in assay [1] and 1 to 10 µM in assay [2].

Consider `COc1cc2c(cc1Nc1ncc(Cl)c(Nc3cc(C(N)=O)ccc3OC)n1)CCN(CCS(C)(=O)=O)CC2` [Example 1137, 3-{5-Chloro-2-[3-(2-methanesulfonyl-ethyl)-8-methoxy-2,3,4,5-tetrahydro-1H-benzo[d]azepin-7-ylamino]-pyrimidin-4-ylamino}-4-methoxy-benzamide], for which the IC50 in assay [1] is 100 to 1000 nM; in assay [2], more than 10 µM.

For `CNC(=O)CN1CCc2cc(Nc3ncc(Cl)c(Nc4cc(C(N)=O)ccc4OC)n3)c(OC)cc2CC1` [Example 1138, 3-[5-Chloro-2-(8-methoxy-3-methylcarbamoylmethyl-2,3,4,5-tetrahydro-1H-benzo[d]azepin-7-ylamino)-pyrimidin-4-ylamino]-4-methoxy-benzamide], the IC50 in assay [1] is 100 to 1000 nM; in assay [2] it was more than 10 µM.

On to `COc1cc2c(cc1Nc1ncc(Cl)c(Nc3cc(C(N)=O)ccc3OC)n1)CCN(C(=O)CN(C)C)CC2` [Example 1139, 3-{5-Chloro-2-[3-(2-dimethylamino-acetyl)-8-methoxy-2,3,4,5-tetrahydro-1H-benzo[d]azepin-7-ylamino]-pyrimidin-4-ylamino}-4-methoxy-benzamide], for which the IC50 in assay [1] is 1000 to 10000 nM; in assay [2], more than 10 µM.

Turning to `COCCN1CCc2cc(Nc3ncc(Cl)c(Nc4cc(C(N)=O)ccc4OC)n3)c(OC)cc2CC1` [Example 1140, 3-{5-Chloro-2-[8-methoxy-3-(2-methoxy-ethyl)-2,3,4,5-tetrahydro-1H-benzo[d]azepin-7-ylamino]-pyrimidin-4-ylamino}-4-methoxy-benzamide], the IC50 was 1000 to 10000 nM in assay [1] and more than 10 µM in assay [2].

`COc1cc2c(cc1Nc1ncc(Cl)c(Nc3ccccc3S(=O)(=O)N(C)C)n1)CCN(CC(=O)N(C)C)CC2` [Example 1141, 2-{7-[5-Chloro-4-(2-dimethylsulfamoyl-phenylamino)-pyrimidin-2-ylamino]-8-methoxy-1,2,4,5-tetrahydro-benzo[d]azepin-3-yl}-N,N-dimethyl-acetamide]: the results for the IC50 in assay [1] and in assay [2] were less than 100 nM and 1 to 10 µM, respectively.

Turning to `COc1cc2c(cc1Nc1ncc(Cl)c(Nc3ccccc3S(C)(=O)=O)n1)CCN(CC(=O)N(C)C)CC2` [Example 1142, 2-{7-[5-Chloro-4-(2-methanesulfonyl-phenylamino)-pyrimidin-2-ylamino]-8-methoxy-1,2,4,5-tetrahydro-benzo[d]azepin-3-yl}-N,N-dimethyl-acetamide], the IC50 was less than 100 nM in assay [1] and 1 to 10 µM in assay [2].

As to `COc1cc2c(cc1Nc1ncc(Cl)c(Nc3ccccc3S(C)(=O)=O)n1)CCN(CC(N)=O)CC2` [Example 1143, 2-{7-[5-Chloro-4-(2-methanesulfonyl-phenylamino)-pyrimidin-2-ylamino]-8-methoxy-1,2,4,5-tetrahydro-benzo[d]azepin-3-yl}-acetamide], the IC50 in assay [1] was less than 100 nM; in assay [2], more than 10 µM.

Regarding `CCOc1ccccc1Nc1nc(Nc2cc3c(cc2OC)CCN(CC(=O)N(C)C)CC3)ncc1Cl` [Example 1144, 2-{7-[5-Chloro-4-(2-ethoxy-phenylamino)-pyrimidin-2-ylamino]-8-methoxy-1,2,4,5-tetrahydro-benzo[d]azepin-3-yl}-N,N-dimethyl-acetamide], the IC50 is less than 100 nM in assay [1] and more than 10 µM in assay [2].

With `COc1cc2c(cc1Nc1ncc(Cl)c(Nc3cccc(N4CCOCC4)c3)n1)CCN(CC(=O)N(C)C)CC2` [Example 1145, 2-{7-[5-Chloro-4-(3-morpholin-4-yl-phenylamino)-pyrimidin-2-ylamino]-8-methoxy-1,2,4,5-tetrahydro-benzo[d]azepin-3-yl}-N,N-dimethyl-acetamide], the IC50 was less than 100 nM in assay [1] and more than 10 µM in assay [2].

Consider `COc1cc2c(cc1Nc1ncc(Cl)c(Nc3ccccc3OCC#N)n1)CCN(CC(=O)N(C)C)CC2` [Example 1147, 2-{7-[5-Chloro-4-(2-cyanomethoxy-phenylamino)-pyrimidin-2-ylamino]-8-methoxy-1,2,4,5-tetrahydro-benzo[d]azepin-3-yl}-N,N-dimethyl-acetamide], for which the IC50 in assay [1] is less than 100 nM; in assay [2] it was more than 10 µM.

For the compound `COc1cc2c(cc1Nc1ncc(Cl)c(Nc3ccccc3S(C)(=O)=O)n1)CCN(CCS(C)(=O)=O)CC2` [Example 1148, 5-Chloro-N*2*-[3-(2-methanesulfonyl-ethyl)-8-methoxy-2,3,4,5-tetrahydro-1H-benzo[d]azepin-7-yl]-N*4*-(2-methanesulfonyl-phenyl)-pyrimidine-2,4-diamine], the figures for the IC50 in assay [1] and in assay [2] were less than 100 nM and 1 to 10 µM, respectively.

As to `COc1cc2c(cc1Nc1ncc(Cl)c(Nc3cc(C#N)ccc3OC)n1)CCN(CC(=O)N(C)C)CC2` [Example 1149, 2-{7-[5-Chloro-4-(5-cyano-2-methoxy-phenylamino)-pyrimidin-2-ylamino]-8-methoxy-1,2,4,5-tetrahydro-benzo[d]azepin-3-yl}-N,N-dimethyl-acetamide], the IC50 in assay [1] was less than 100 nM; in assay [2], 1 to 10 µM.

Regarding `COc1cc2c(cc1Nc1ncc(Cl)c(Nc3ccccc3S(=O)(=O)C(C)C)n1)CCN(CC(=O)N(C)C)CC2` [Example 1151, 2-(7-{5-Chloro-4-[2-(propane-2-sulfonyl)-phenylamino]-pyrimidin-2-ylamino}-8-methoxy-1,2,4,5-tetrahydro-benzo[d]azepin-3-yl)-N,N-dimethyl-acetamide], the IC50 in assay [1] is less than 100 nM; in assay [2], 1 to 10 µM.

For `COc1cc2c(cc1Nc1ncc(Cl)c(Nc3ccccc3S(=O)(=O)N(C)C)n1)CCN(CCS(C)(=O)=O)CC2` [Example 1152, 2-{5-Chloro-2-[3-(2-methanesulfonyl-ethyl)-8-methoxy-2,3,4,5-tetrahydro-1H-benzo[d]azepin-7-ylamino]-pyrimidin-4-ylamino}-N,N-dimethyl-benzenesulfonamide], the 50% inhibitory concentration (IC50) in assay [1] is less than 100 nM; in assay [2] it was 1 to 10 µM.

For the compound `COCC(COC)N1CCc2cc(Nc3ncc(Cl)c(Nc4ccc(C(N)=O)cc4OC)n3)c(OC)cc2CC1` [Example 1153, 4-{5-Chloro-2-[8-methoxy-3-(2-methoxy-1-methoxymethyl-ethyl)-2,3,4,5-tetrahydro-1H-benzo[d]azepin-7-ylamino]-pyrimidin-4-ylamino}-3-methoxy-benzamide], the results for the IC50 in assay [1] and in assay [2] were less than 100 nM and more than 10 µM, respectively.

`COc1cc2c(cc1Nc1ncc(Cl)c(Nc3cc(C#N)ccc3OC)n1)CCN(CC(N)=O)CC2` [Example 1154, 2-{7-[5-Chloro-4-(5-cyano-2-methoxy-phenylamino)-pyrimidin-2-ylamino]-8-methoxy-1,2,4,5-tetrahydro-benzo[d]azepin-3-yl}-acetamide]: the IC50 in assay [1] was less than 100 nM; in assay [2], more than 10 µM.

With `COc1cc2c(cc1Nc1ncc(Cl)c(Nc3ccc(N4CCOCC4)cc3OC)n1)CCN(CC(=O)N1CCCC1)CC2` [Example 1155, 2-{7-[5-Chloro-4-(2-methoxy-4-morpholin-4-yl-phenylamino)-pyrimidin-2-ylamino]-8-methoxy-1,2,4,5-tetrahydro-benzo[d]azepin-3-yl}-1-pyrrolidin-1-yl-ethanone], the figures for the IC50 in assay [1] and in assay [2] were less than 100 nM and more than 10 µM, respectively.

For the origin of these results see patent US8148391B2 (Cephalon, Inc., priority 2006, dated 2012).
